Measured values taken from patent publication US7192906B2, “Substituted pyrazole derivatives, production process thereof, and herbicide compositions containing the derivatives” (SDS Biotech K.K., priority 2001, dated 2007).

Columns and labels:
Type in all cases: in vivo
Chenopodium album [1] = assay: Test Example 1 upland field foliage treatment; conditions: Table 4, upland field foliage treatment, index 0-5
Outline: (§1)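 Seeds sown in upland soil in pots and covered with about 1 cm soil; on day 14 after sowing, diluted wettable powder applied uniformly to leaves at 1 kg active ingredient per hectare. Weed control or crop phytotoxicity scored visually 21 days after application on a 0–5 scale (5 = ≥90%, 0 = <10%).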

Digitaria adscendens [2] = assay: Test Example 1 upland field foliage treatment; conditions: Table 4, upland field foliage treatment, index 0-5
Outline: as §1

Setaria viridis [3] = assay: Test Example 1 upland field foliage treatment; conditions: Table 4, upland field foliage treatment, index 0-5
Outline: as §1

Stellaria media [4] = assay: Test Example 1 upland field foliage treatment; conditions: Table 4, upland field foliage treatment, index 0-5
Outline: as §1

soybean (Glycine max) [5] = assay: Test Example 1 upland field foliage treatment, crop phytotoxicity; conditions: Table 4, upland field foliage treatment, index 0-5
Outline: as §1

[6] = test system: wheat (Triticum aestivum); assay: as above; conditions: Table 4, upland field foliage treatment, index 0-5
Outline: as §1

Chenopodium album [7] = assay: Test Example 2 upland soil treatment; conditions: Table 5, upland soil treatment, index 0-5
Outline: (§2)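 Score 0–5 read at day 21 (5 = ≥90% effect or phytotoxicity, 0 = <10%). Wettable powder diluted in water to 1 kg a.i./ha, applied uniformly to upland soil one day after sowing; seeds covered with ~1 cm soil.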

Digitaria adscendens [8] = assay: Test Example 2 upland soil treatment; conditions: Table 5, upland soil treatment, index 0-5
Outline: as §2

Setaria viridis [9] = assay: Test Example 2 upland soil treatment; conditions: Table 5, upland soil treatment, index 0-5
Outline: as §2

Stellaria media [10] = assay: Test Example 2 upland soil treatment; conditions: Table 5, upland soil treatment, index 0-5
Outline: as §2

soybean (Glycine max) [11] = assay: Test Example 2 upland soil treatment, crop phytotoxicity; conditions: Table 5, upland soil treatment, index 0-5
Outline: as §2

[12] = test system: wheat (Triticum aestivum); assay: as above; conditions: Table 5, upland soil treatment, index 0-5
Outline: as §2

Ammannia multiflora = assay: Test Example 3 paddy field treatment; conditions: paddy field treatment, wettable powder, active ingredient 1 kg per hectare, 21st day after the dropping, index 0-5
Outline: (§3)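 Weed seeds sown in puddled paddy soil under 4 cm water, with two-leaf Koshihikari rice transplanted; 10 days later a wettable powder was applied to the water surface at 1 kg active ingredient/ha. Scored 21 days after application on a 0–5 scale (0 = <10%, 5 = ≥90% herbicidal effect or phytotoxicity).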

Echinochloa crusgalli = assay: Test Example 3 paddy field treatment; conditions: paddy field treatment, wettable powder, active ingredient 1 kg per hectare, 21st day after the dropping, index 0-5
Outline: as §3

Monochoria vaginalis = assay: Test Example 3 paddy field treatment; conditions: paddy field treatment, wettable powder, active ingredient 1 kg per hectare, 21st day after the dropping, index 0-5
Outline: as §3

Scirpus juncoides = assay: Test Example 3 paddy field treatment; conditions: paddy field treatment, wettable powder, active ingredient 1 kg per hectare, 21st day after the dropping, index 0-5
Outline: as §3

Rice (Oryza sativa) = assay: Test Example 3 paddy field treatment, crop phytotoxicity; conditions: paddy field treatment, transplanted rice Koshihikari, wettable powder, active ingredient 1 kg per hectare, 21st day after the dropping, index 0-5
Outline: as §3

Row | SMILES | Herbicidal activity CA: Chenopodium album (Chenopodium album [1]) | Herbicidal activity DA: Digitaria adscendens (Digitaria adscendens [2]) | Herbicidal activity SV: Setaria viridis (Setaria viridis [3]) | Herbicidal activity SM: Stellaria media (Stellaria media [4]) | Herbicidal activity (phytotoxicity) GM: Soybean (Glycine max) (soybean (Glycine max) [5]) | Herbicidal activity (phytotoxicity) TA: Wheat (Triticum aestivum) [6] | Herbicidal activity CA: Chenopodium album (Chenopodium album [7]) | Herbicidal activity DA: Digitaria adscendens (Digitaria adscendens [8]) | Herbicidal activity SV: Setaria viridis (Setaria viridis [9]) | Herbicidal activity SM: Stellaria media (Stellaria media [10]) | Herbicidal activity (phytotoxicity) GM: Soybean (Glycine max) (soybean (Glycine max) [11]) | Herbicidal activity (phytotoxicity) TA: Wheat (Triticum aestivum) [12] | Herbicidal activity AM (Ammannia multiflora) | Herbicidal activity EC (Echinochloa crusgalli) | Herbicidal activity MV (Monochoria vaginalis) | Herbicidal activity SJ (Scirpus juncoides) | Herbicidal activity OS (phytotoxicity to rice) (Rice (Oryza sativa))
1 | CON=C(Cn1cc(C)c(-c2ccccc2)n1)C(=O)NC(C)C [Compound 20] | 5 (herbicidal effect of not less than 90%, or phytotoxicity of 90% or more) | 3 (herbicidal effect of not less than 50% and less than 70%, or phytotoxicity of 50% or more and less than 70%) | 2 (herbicidal effect of not less than 30% and less than 50%, or phytotoxicity of 30% or more and less than 50%) | 5 (herbicidal effect of not less than 90%, or phytotoxicity of 90% or more) | 0 (herbicidal effect of not less than 0% and less than 10%, or phytotoxicity of 0% or more and less than 10%) | 0 (herbicidal effect of not less than 0% and less than 10%, or phytotoxicity of 0% or more and less than 10%) | 3 (herbicidal effect of not less than 50% and less than 70%, or phytotoxicity of 50% or more and less than 70%) | 4 (herbicidal effect of not less than 70% and less than 90%, or phytotoxicity of 70% or more and less than 90%) | 3 (herbicidal effect of not less than 50% and less than 70%, or phytotoxicity of 50% or more and less than 70%) | 4 (herbicidal effect of not less than 70% and less than 90%, or phytotoxicity of 70% or more and less than 90%) | 0 (herbicidal effect of not less than 0% and less than 10%, or phytotoxicity of 0% or more and less than 10%) | 0 (herbicidal effect of not less than 0% and less than 10%, or phytotoxicity of 0% or more and less than 10%) | 4 (herbicidal effect of not less than 70% and less than 90%, or phytotoxicity of 70% or more and less than 90%) | 5 (herbicidal effect of not less than 90%, or phytotoxicity of 90% or more) | 5 (herbicidal effect of not less than 90%, or phytotoxicity of 90% or more) | 4 (herbicidal effect of not less than 70% and less than 90%, or phytotoxicity of 70% or more and less than 90%) | 0 (herbicidal effect of not less than 0% and less than 10%, or phytotoxicity of 0% or more and less than 10%)
2 | CON=C(Cn1cc(C)c(-c2ccccc2)n1)C(=O)NC1CC1 [Compound 21, 2-methoxyimino-3-(phenyl-4-methyl-pyrazole)-1-yl-propanoic acid-N-cyclopropylamide] | 5 (herbicidal effect of not less than 90%, or phytotoxicity of 90% or more) | 5 (herbicidal effect of not less than 90%, or phytotoxicity of 90% or more) | 5 (herbicidal effect of not less than 90%, or phytotoxicity of 90% or more) | 5 (herbicidal effect of not less than 90%, or phytotoxicity of 90% or more) | 0 (herbicidal effect of not less than 0% and less than 10%, or phytotoxicity of 0% or more and less than 10%) | 0 (herbicidal effect of not less than 0% and less than 10%, or phytotoxicity of 0% or more and less than 10%) | 5 (herbicidal effect of not less than 90%, or phytotoxicity of 90% or more) | 4 (herbicidal effect of not less than 70% and less than 90%, or phytotoxicity of 70% or more and less than 90%) | 4 (herbicidal effect of not less than 70% and less than 90%, or phytotoxicity of 70% or more and less than 90%) | 5 (herbicidal effect of not less than 90%, or phytotoxicity of 90% or more) | 0 (herbicidal effect of not less than 0% and less than 10%, or phytotoxicity of 0% or more and less than 10%) | 0 (herbicidal effect of not less than 0% and less than 10%, or phytotoxicity of 0% or more and less than 10%) | 5 (herbicidal effect of not less than 90%, or phytotoxicity of 90% or more) | 5 (herbicidal effect of not less than 90%, or phytotoxicity of 90% or more) | 5 (herbicidal effect of not less than 90%, or phytotoxicity of 90% or more) | 5 (herbicidal effect of not less than 90%, or phytotoxicity of 90% or more) | 0 (herbicidal effect of not less than 0% and less than 10%, or phytotoxicity of 0% or more and less than 10%)
3 | CON=C(Cn1cc(C)c(-c2ccccc2)n1)C(=O)NC1CCCC1 [Compound 23] | 4 (herbicidal effect of not less than 70% and less than 90%, or phytotoxicity of 70% or more and less than 90%) | 3 (herbicidal effect of not less than 50% and less than 70%, or phytotoxicity of 50% or more and less than 70%) | 3 (herbicidal effect of not less than 50% and less than 70%, or phytotoxicity of 50% or more and less than 70%) | 4 (herbicidal effect of not less than 70% and less than 90%, or phytotoxicity of 70% or more and less than 90%) | 0 (herbicidal effect of not less than 0% and less than 10%, or phytotoxicity of 0% or more and less than 10%) | 0 (herbicidal effect of not less than 0% and less than 10%, or phytotoxicity of 0% or more and less than 10%) | 5 (herbicidal effect of not less than 90%, or phytotoxicity of 90% or more) | 4 (herbicidal effect of not less than 70% and less than 90%, or phytotoxicity of 70% or more and less than 90%) | 4 (herbicidal effect of not less than 70% and less than 90%, or phytotoxicity of 70% or more and less than 90%) | 4 (herbicidal effect of not less than 70% and less than 90%, or phytotoxicity of 70% or more and less than 90%) | 0 (herbicidal effect of not less than 0% and less than 10%, or phytotoxicity of 0% or more and less than 10%) | 0 (herbicidal effect of not less than 0% and less than 10%, or phytotoxicity of 0% or more and less than 10%) | 5 (herbicidal effect of not less than 90%, or phytotoxicity of 90% or more) | 4 (herbicidal effect of not less than 70% and less than 90%, or phytotoxicity of 70% or more and less than 90%) | 5 (herbicidal effect of not less than 90%, or phytotoxicity of 90% or more) | 4 (herbicidal effect of not less than 70% and less than 90%, or phytotoxicity of 70% or more and less than 90%) | 0 (herbicidal effect of not less than 0% and less than 10%, or phytotoxicity of 0% or more and less than 10%)
